Data set [1] addresses T1, HsYRS (Homo sapiens, UniProt P54577).
T1 construct: made in house; host or cells: E. coli BL21(DE3), pET-11a
T1 sequence (P54577 1-364): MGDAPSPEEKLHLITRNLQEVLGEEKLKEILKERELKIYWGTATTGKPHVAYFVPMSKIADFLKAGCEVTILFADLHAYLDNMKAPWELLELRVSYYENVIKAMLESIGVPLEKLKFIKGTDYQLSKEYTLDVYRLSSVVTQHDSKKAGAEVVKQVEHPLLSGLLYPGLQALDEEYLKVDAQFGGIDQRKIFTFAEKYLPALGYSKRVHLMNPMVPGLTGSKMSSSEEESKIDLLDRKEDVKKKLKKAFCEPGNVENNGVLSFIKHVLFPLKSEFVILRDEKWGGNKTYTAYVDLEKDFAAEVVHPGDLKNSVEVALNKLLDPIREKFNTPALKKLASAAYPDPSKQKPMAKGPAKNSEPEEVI
Put plainly: Differential scanning fluorimetry, HsYRS. It counts as binding. Particulars: in the presence of ML901 plus substrates. The method, then: This DNA template and its complementary strand were custom-synthesized by Sigma-
810 (HiScribe™ T7 Quick High Yield RNA Synthesis Kit, NEB). On the following day, the reaction mixture
820 was sealed and analysed using StepOnePlus Real-Time PCR system (Applied Biosystems). The samples
The thermal unfolding curve was plotted
The melting temperature (Tm), defined as the
Reactions were conducted in 50 mM Tris-
Reactions were conducted in 50 mM Tris-HCL, pH 7.6,
For orientation: Differential scanning fluorimetry follows unfolding on heating by fluorescence.

The target in data set [2] is T1, HsYRS. Description: Tyrosine acylation of cognate tRNATyr by HsYRS. It counts as biochemical. The following applies: YRS 0.25 μM, ATP 10 μM, 37°C 1 h.
The subject of the next data set is PfYRS knockdown line. Put plainly: Growth inhibition of aptamer-regulatable PfYRS knockdown line (luciferase, 72 h). The following applies: for IC50: Plasmodium falciparum. It counts as cell-based, Plasmodium falciparum. From the text:
674 Generation and analysis of PfYRS knock-down transfectants
675 A conditional regulatable line for the cytosolic PfYRS (PF3D7_0807900) was generated by integrating the
676 gene regulatable system, TetR-DOZI-RNA aptamer module at the 3'-end of the target gene, in P. falciparum
677 parasites using CRISPR-Cas9 and homology-driven repair (55, 56). A line harbourbing an aptamer-
678 regulatable fluorescent protein (eYFP) integrated in the cg6 locus is used as the control (55). Transfection
679 into parasites was carried out by preloading RBCs with the donor vector as described previously (57).
680 Briefly, 50 μg of purified plasmid DNA was mixed with human RBCs and subjected to 8 square wave
681 electroporation pulses of 365 V for 1 ms each, separated by 0.1 s in a 0.2 cm cuvette. The plasmid DNA
682 preloaded cells were inoculated with NF54 expressing Cas9 and T7 RNA polymerase. […]
696 Stock solutions of ML901, DHA or borrelidin (Cayman Chemicals) were dispensed into 96-well U-bottom
697 BD Falcon™ plates and serially diluted in complete medium to yield final concentrations ranging from 20-
698 0.08 nM. Synchronous ring-stage YRScyt conditional knockdown line and the aptamer-regulatable control
699 line in varying aTc concentrations (high = 50 or 500 nM, low = 1 nM, and no aTc) were distributed into
700 the drug plate. Lowest drug treatment and a lethal dose of chloroquine (200 nM) served as reference
701 controls. Growth inhibition was analysed after 72 h using the Renilla-Glo(R) Luciferase Assay System (ref
702 no E2750 Promega) and the GloMax® Discover Multimode Microplate Reader (Promega), and IC50 values
703 were obtained from corrected dose-response curves using GraphPad Prism (version 8; GraphPad Software). […]
706 CRISPR/Cas9 was used to generate parasites encoding the S234C mutation in exon 2 of PfYRS, as shown
707 in Suppl Figure 6. Two guide RNAs (gRNA1: […] and gRNA2:
708 […]) were selected using Benchling (benchling.com), and cloned into the
709 pDC2-coCas9-gRNA plasmid essentially as described previously (58). A donor template of 645 bp,
710 encompassing the majority of the 708 bp exon 2, was synthesized (ThermoFisher) and cloned into the
711 AatII/EcoRI sites of both the pDC2-coCas9-gRNA1 and pDC2-coCas9-gRNA2 plasmids. In addition to
712 the TCC>TGC (S234C) mutation, additional silent shield mutations were introduced to prevent gRNA-
713 Cas9 complex binding, as shown in Suppl Figure 6. Ring-stage P. falciparum parasites (Dd2 strain) at 10%
714 parasitemia (150 µL of packed cells) were transfected with 50 µg of plasmid DNA using a BioRad Gene
715 Pulser II (310 V, 950 µF), and selected with 5 nM WR99210 (Jacobus Pharmaceuticals) for 8 days, after
716 which culture was continued without drug pressure until transfectants were obtained. Clones of the
717 PfYRSS234C mutant parasites were isolated by limiting dilution and verified by Sanger sequencing.
719 Protein translation assay
720 P. falciparum Cam 3.II_Rev (25) schizont- (43-48 h p.i.) infected RBCs were pre-incubated with inhibitor
Using a modification of a published procedure (14), the
722 cells were labelled with O-propargyl-puromycin (OPP; 4 µM) for 1 h, washed 3x (PBS +3% serum) and
723 then fixed for 10 minutes (4% formaldehyde/0.02% glutaraldehyde in PBS). The click reaction was
724 performed for 1 h in the presence of CuSO4 (0.1 mM), THPTA (0.5 mM) and sodium ascorbate (5 mM) to
725 bring about azide-alkyne cycloaddition to Alexa Fluor 488 azide (0.1 µM). Flow cytometry was performed
726 using the FITC and Cy™5.5 channels to detect the Alexa Fluor 488 and PI, respectively.
729 Cam 3.II_Rev (25) trophozoite-infected RBCs (25-30 h p.i.) were incubated with inhibitor for 3 h at 10%
730 hematocrit and 5% parasitemia. The RBC pellet was washed 3 x in PBS + cOmplete. Cells were centrifuged
731 at 380 x g for 5 min and the pelleted cells lysed by resuspension in PBS + 0.05% saponin for 5 min on ice.

A further data set can be described thus: Solubility. It counts as physicochemical.
Data set [3] relates to P. falciparum NF54 liver stage parasites. Description: P. falciparum NF54 schizont development in primary human hepatocytes. The format is cell-based. Particulars: Plasmodium falciparum, NF54, Hepatocyte, 96 h.

Usually IC50 stands for the concentration at which inhibition is half-maximal. A word on the solubility: it is the dissolved amount per volume that the medium holds. A higher solubility goes with much dissolved substance.

Where two headings read alike, the source gives them in different places.

In the case of `Nc1ncnc2c1c(OC(F)F)nn2[C@@H]1O[C@H](COS(N)(=O)=O)[C@@H](O)[C@H]1O` [ML901], the “thermal stabilization of HsYRS” value at HsYRS [1] was “not stabilized”. For the same molecule, the IC50 was > 500000 nM against HsYRS [2]; 0.4 nM with PfYRS knockdown line (as stated in main text, aTc condition not given, read-out: IC50 against the knockdown parasites); 3.9 ± 0.9 nM in the data set on PfYRS knockdown line (high aTc (50 nM), read-out: IC50 against PfYRS knockdown line); 0.5 ± 0.1 nM with PfYRS knockdown line (low aTc (1 nm), read-out: IC50 against PfYRS knockdown line); 0.3 ± 0.1 nM in the data set on PfYRS knockdown line (no aTc, read-out: IC50 against PfYRS knockdown line); 13 ± 5 nM in data set [3]. Also, in the data set on PfYRS knockdown line (high aTc 50 nM), the “Fold change in IC50 (high aTc/ no aTc), PfYRS knockdown line” value is recorded as 13. For the same molecule, the solubility in the data set “Solubility” is > 200 µM.

The values are drawn from publication PMC7613620, “Reaction hijacking of tyrosine tRNA synthetase as a whole-of-life-cycle antimalarial strategy” (Science (New York, N.Y.), 2022).
